Reference: PubChem BioAssay AID1918948 (Molecular Pharmacology Branch, DTP, NCI, 2023)

Tested on: K-562 leukemia growth, % test/control
Assay: Anticancer human tumor K-562 cell line growth inhibition;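 on viability, T/C: 100% = DMSO vehicle wells and lower values mean fewer viable cells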
Settings: spheroids with HUVEC and MSC; for IC50: curve of first compound; for viability, T/C: stronger effect = lower value
Method in brief: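 Complex spheroids of tumor cells with HUVEC and human MSCs, exposed to iadademstat combined with other agents. Each agent tested in half-log steps from near clinical Cmax (else 10 microM top), DMSO ≤0.25%.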

[1] = second compound 0.1 µM, first compound 0.0316 µM
[2] = second compound 0.1 µM, first compound 0.1 µM
[3] = second compound 0.1 µM, first compound 0.316 µM
[4] = second compound 0.1 µM, first compound 1 µM
[5] = second compound 0.1 µM, first compound 3.16 µM
[6] = second compound 0.1 µM, first compound 10 µM
[7] = second compound 0.316 µM, first compound 0.0316 µM
[8] = second compound 0.316 µM, first compound 0.1 µM
[9] = second compound 0.316 µM, first compound 0.316 µM
[10] = second compound 0.316 µM, first compound 1 µM
[11] = second compound 0.316 µM, first compound 3.16 µM
[12] = second compound 0.316 µM, first compound 10 µM
[13] = second compound 1 µM, first compound 0.0316 µM
[14] = second compound 1 µM, first compound 0.1 µM
[15] = second compound 1 µM, first compound 0.316 µM
[16] = second compound 1 µM, first compound 1 µM
[17] = second compound 1 µM, first compound 3.16 µM
[18] = second compound 1 µM, first compound 10 µM
[19] = second compound 3.16 µM, first compound 0.0316 µM
[20] = second compound 3.16 µM, first compound 0.1 µM
[21] = second compound 3.16 µM, first compound 0.316 µM
[22] = second compound 3.16 µM, first compound 1 µM
[23] = second compound 3.16 µM, first compound 3.16 µM
[24] = second compound 3.16 µM, first compound 10 µM
[25] = second compound 10 µM, first compound 0.0316 µM
[26] = second compound 10 µM, first compound 0.1 µM
[27] = second compound 10 µM, first compound 0.316 µM
[28] = second compound 10 µM, first compound 1 µM
[29] = second compound 10 µM, first compound 3.16 µM
[30] = second compound 10 µM, first compound 10 µM

| SMILES | IC50 (second compound 0.1 µM) [µM] | IC50 (second compound 0.316 µM) [µM] | IC50 (second compound 1 µM) [µM] | IC50 (second compound 3.16 µM) [µM] | IC50 (second compound 10 µM) [µM] | viability, T/C [1] [%] | viability, T/C [2] [%] | viability, T/C [3] [%] | viability, T/C [4] [%] | viability, T/C [5] [%] | viability, T/C [6] [%] | viability, T/C [7] [%] | viability, T/C [8] [%] | viability, T/C [9] [%] | viability, T/C [10] [%] | viability, T/C [11] [%] | viability, T/C [12] [%] | viability, T/C [13] [%] | viability, T/C [14] [%] | viability, T/C [15] [%] | also measured |
| --- | --- | --- | --- | --- | --- | --- | --- | --- | --- | --- | --- | --- | --- | --- | --- | --- | --- | --- | --- | --- | --- |
| CC(C)c1c(-c2ccccc2)nc2c(C#N)c[nH]n2c1=O + NC1CCC(NC2CC2c2ccccc2)CC1 | > 10 | > 10 | > 10 | > 10 | > 10 | 98.7 | 95.2 | 96.6 | 100 | 99.1 | 98.9 | 100 | 101 | 99.8 | 98.6 | 99.6 | 98.9 | 102 | 102 | 100 | viability, T/C [16]: 99.4%; viability, T/C [17]: 100%; viability, T/C [18]: 101%; viability, T/C [19]: 102%; viability, T/C [20]: 102%; viability, T/C [21]: 99.7%; viability, T/C [22]: 102%; viability, T/C [23]: 103%; viability, T/C [24]: 100%; viability, T/C [25]: 95.6%; viability, T/C [26]: 98.7%; viability, T/C [27]: 96.8%; viability, T/C [28]: 97%; viability, T/C [29]: 97.9%; viability, T/C [30]: 98.4% |
| COc1ccc([C@@H](O)c2cc(-c3ncnc4cc(N5CCOCC5)ccc34)c(F)cc2Cl)nn1 + NC1CCC(NC2CC2c2ccccc2)CC1 | 9.23 | 9.9 | > 10 | 9.83 | 8.18 | 100 | 100 | 101 | 103 | 96.6 | 46.5 | 101 | 101 | 104 | 106 | 98.2 | 49.5 | 105 | 103 | 105 | viability, T/C [16]: 105%; viability, T/C [17]: 98.2%; viability, T/C [18]: 51.8%; viability, T/C [19]: 101%; viability, T/C [20]: 102%; viability, T/C [21]: 103%; viability, T/C [22]: 104%; viability, T/C [23]: 97.4%; viability, T/C [24]: 49.2%; viability, T/C [25]: 99.5%; viability, T/C [26]: 101%; viability, T/C [27]: 101%; viability, T/C [28]: 98.2%; viability, T/C [29]: 91.8%; viability, T/C [30]: 41% |
